Reference: US20030134342A1, “Binding-specific peptides, binding-specific carrier molecules, and uses thereof” (priority 2001, published 2003)
Where a SMILES comes first, the peptide text is derived from it.

Assays:
[1] = system: human myeloid leukemia cell line HL60; assay: Proliferation of HL60 cells: cell number after 7 days culture; type: cell-based; conditions: for No. Cells: HL60, after 7 days; for Percent relative to Controls: HL60 cell number after 7 days
Description: The number of cells after 7 days culture growth were counted in the presence or absence of the different molecules. Results are shown for the free G5 12-8B peptide alone (artificially synthesized), phage displaying G5 12-8B, the free A2 11-24 peptide, phage displaying the A2 11-24 peptide, a combination of the free G5 and A2 peptides, a combination of the free pure with phage displaying the peptides, and several concentrations of peptide.
(§1) Such inhibition is not the result of the killing of the cells. The data are graphed in the Figures.
The control number of cells per milliliter (2.6) is an average of results from dual controls (2.6×10^6).
(§2) DMSO, dimethylsulfoxide, is a chemical that induces HL60 cellular differentiation.

[2] = system: human myeloid leukemia cell line HL60; assay: Viability of HL60 cells, trypan blue; type: cell-based; conditions: for Day 5 Viability: 5 day; for Day 7 Viability: 7 day; for Day 9 Viability: 9 day
Method: (§3) Studies were conducted of the effects of the free G5 12-8B (artificially synthesized), phage displaying G5 12-8B, the free A2 11-24 peptide, phage displaying the A2 11-24 peptide, a combination of the free G5 and A2 peptides, a combination of pure peptides plus phage displaying the peptides, and several concentrations of peptide.

[3] = system: human myeloid leukemia cell line HL60; assay: Differentiation of HL60 cells; type: cell-based
Description: FIG. 1 illustrates the effects of several peptides on the differentiation of the human myeloid leukemia cell line HL60.
as §1, §2
The level of differentiation of the HL60 cells after 5 or 7 days growth in the presence or absence of the various phage and peptides combinations described above are shown in FIG. 1. The high level of differentiation that has been achieved is notable from the graph in FIG. 1. The levels of differentiation in the presence of peptide exceed that produced by the presence of phage alone.

[4] = system: human myeloid leukemia cell line HL60; assay: Differentiation of HL60 cells; type: cell-based; remark: listed apart in the source
[5] = Viability of HL60 cells, trypan blue; type: cell-based; conditions: human
Method: as §3

CML cells = assay: ELISA binding of phage displaying peptides to fixed cells: CML cells; parameters: species or system human; conditions: in words
Method: (§4) Preliminary experiments were performed to identify specific peptides by using cells from patients diagnosed with CLL, CML, and AML. The screening was performed by incubating the cells with the phage-peptides from the library. This incubation allows interaction between the peptide and the cell. The binding step was followed by several washes to eliminate free phage. Phage bound on the cell surface was eluted.
(§5) After the last round of binding with one cell type, the eluted phage was plated on an agar plate with the appropriate selection antibiotics. Each individual colony, corresponding to one individual peptide sequence, was amplified in a 96-well plate. After purification, these peptides were tested for their ability to bind to the cells in a microtiter plate by ELISA.
(§6) Each peptide was dispensed in a 96-well plate, containing cells previously fixed. Each colony was tested in a triplicate assay with the appropriate controls. After incubation of cells with an individual clone, the wells were washed to eliminate free phage. The bound phages were detected by using a monoclonal anti-M13 antibody/horseradish peroxidase (HRP) conjugate. After addition of the HRP substrate, the intensity of the coloration was measured by spectrophotometry. The light absorbance values (optical density values, O.D. values) are proportional to the number of phage bound to the cells.
(§7) The binding to various cell types were examined to evaluate the cellular specificity of the phage clones. For example, the clones from phage eluted from CLL patient cells were assayed for their ability to bind cells from an AML patient. Cells from normal donors (non-leukemic) were also evaluated to ascertain leukemia cell specificity.
(§8) Peripheral blood and bone marrow samples were collected from patients after informed consent. The samples were collected in tubes containing sodium citrate. Mononuclear cells were isolated by Ficoll-Hypaque density gradient separation and collection of the cells at a density of 1.077 g/mL.
(§9) The wells of a 96-well plate were pre-treated with 100 μL of poly-L-lysine (0.01 mg/mL in phosphate-buffered saline, 120 mM NaCl, 2.7 mM KCl, 10 mM phosphate buffer, “PBS”) for 2-16 hours at room temperature. After draining the poly-L-lysine from the wells, the excess poly-L-lysine was removed from the wells by flicking. The cells were washed with PBS, then suspended in PBS and diluted to a final concentration of […]. The cell suspension (200 μL; 250,000 cells) were added to each well needed for the assay.
(§10) The plates were centrifuged at 500 g for about 5 minutes in a microplate carrying centrifuge when available. The cells were fixed to the wells through the addition of glutaraldehyde (100 μL of 0.5%) and incubating at room temperature for about an hour. The glutaraldehyde was removed and the cell-coated wells washed once with PBS. Alternatively, the cells were permitted to settle to the well bottoms for about 4 hours at 37° C., and the glutaraldehyde fixative was added after removing the PBS.
(§11) A glycine solution (200 μl of 0.1 M glycine in PBS) containing bovine serum albumin (BSA; 1%) was added to the wells and permitted to incubate for 30 minutes to block excess glutaraldehyde. The glycine was removed, and the cell-coated wells washed once with PBS. A sodium pyrophosphate solution (200 μL of 0.3 mg/mL NaPPi) was added to the wells and incubated for an hour at room temperature to neutralize lysine charges. The pyrophosphate solution was removed and the wells washed once with PBS. Multiwell microtiter plates with cell-coated wells were stored at 4° C. with fresh PBS solution in the coated wells.
(§12) The cells to be studied for binding were suspended in PBS and adsorbed onto to a poly-L-lysine pretreated 96-well plate and kept at 4° C. The PBS was removed from the wells and an H2O2 solution in PBS (6% H2O2 in 200 μL/well) was added. […]

AML cells = assay: ELISA binding of phage displaying peptides to fixed cells: AML cells; parameters: species or system human; conditions: in words
Method: as §4, §5, §6, §7, §8, §9, §10, §11, §12

[6] = system: normal peripheral blood cells (lymphocytes and granulocytes); assay: ELISA binding of phage displaying peptides to fixed cells: normal peripheral blood cells; parameters: species or system human; conditions: in words
Method: as §4, §5, §6, §7, §8, §9, §10, §11, §12

CLL cells = assay: ELISA binding of phage displaying peptides to fixed cells: CLL cells; parameters: species or system human; conditions: in words
Method: as §4, §5, §6, §7, §8, §9, §10, §11, §12

[7] = system: all myeloid cells, both malignant and nonmalignant; assay: ELISA binding of phage displaying peptides to fixed cells: all myeloid cells; parameters: species or system human; conditions: in words
Method: as §4, §5, §6, §7, §8, §9, §10, §11, §12

[8] = system: human bone marrow AML cells; assay: Effect of phage-peptides on differentiation, cell number and viability of freshly obtained AML patient bone marrow cells cultured seven days; type: cell-based; conditions: for Number of Cells / Percent Differentiation: phage-peptides; for Percent differentiated in Specimen 1 / Percent differentiated in Specimen 2: peptides in bacteriophage, AML cells cultured seven days in vitro
Description: The effect of various phage-peptides were studied on the differentiation of cells from two AML patients.

In the case of `CC[C@H](C)[C@H](NC(=O)[C@@H](N)CS)C(=O)N[C@@H](CCC(=O)O)C(=O)N[C@@H](CCC(=O)O)C(=O)N[C@H](C(=O)N[C@@H](C)C(=O)N[C@@H](CCCNC(=N)N)C(=O)N[C@@H](CCCCN)C(=O)NCC(=O)N[C@@H](CS)C(=O)O)[C@@H](C)O` [A2 11-24 peptide] (H-CIEETARKGC-OH; N-terminus and C-terminus assumed), the “No. Cells” value ([1]; free peptide at 10^−4 M) is reported as 2.0 10^6 cell/mL, the “Percent relative to Controls” value ([1]; free peptide at 10^−4 M) is reported as 77% and the “Day 5 Viability” value [2] is reported as 100%. For the same compound, the “Day 7 Viability” value [2] was 96%, the “Day 9 Viability” value [2] was 87% and the “Day 5 % Diff.” value ([3]; free peptide at 10^−4 M) was 18%. For the same compound, the “Day 5 % Diff., figure in parentheses” value ([3]; free peptide at 10^−4 M) was 150%, the “Day 7 % Diff.” value ([3]; free peptide at 10^−4 M) was 30% and the “Day 7 % Diff., figure in parentheses” value ([3]; free peptide at 10^−4 M) was 188%. The “Day 9 % Diff.” value ([4]; free peptide at 10^−4 M) was 25%.
In the case of `C[S+](C)[O-]` [DMSO, dimethylsulfoxide, reference compound], the “No. Cells” value ([1]; concentration not given) is reported as 0.9 10^6 cell/mL, the “Percent relative to Controls” value ([1]; concentration not given) is reported as 30% and the viability at 5 days [5] is reported as 98%. The viability at 7 days [5] was 97%, the viability at 9 days [5] was 82% and the “Day 5 % Diff.” value ([3]; concentration not given) was “off scale”. The “Day 7 % Diff.” value ([3]; concentration not given) was “off scale” and the “Day 9 % Diff.” value ([4]; concentration not given) was “off scale”.
In the case of `NCCCC[C@H](NC(=O)CNC(=O)[C@H](CO)NC(=O)[C@H](Cc1c[nH]c2ccccc12)NC(=O)[C@H](CCC(N)=O)NC(=O)[C@H](CCC(N)=O)NC(=O)[C@H](Cc1ccccc1)NC(=O)[C@H](CCC(=O)O)NC(=O)[C@@H](N)CS)C(=O)N[C@@H](CS)C(=O)O` [G5 12-8B peptide] (H-CEFQQWSGKC-OH; N-terminus and C-terminus assumed), the “No. Cells” value ([1]; free peptide at 10^−4 M) is reported as 1.2 10^6 cell/mL, the “Percent relative to Controls” value ([1]; free peptide at 10^−4 M) is reported as 48% and the “Day 5 Viability” value [2] is reported as 98%. For the same compound, the “Day 7 Viability” value [2] was 96%, the “Day 9 Viability” value [2] was 90% and the “Day 5 % Diff.” value ([3]; free peptide at 10^−4 M) was 22%. For the same compound, the “Day 5 % Diff., figure in parentheses” value ([3]; free peptide at 10^−4 M) was 183%, the “Day 7 % Diff.” value ([3]; free peptide at 10^−4 M) was 31% and the “Day 7 % Diff., figure in parentheses” value ([3]; free peptide at 10^−4 M) was 194%. The “Day 9 % Diff.” value ([4]; free peptide at 10^−4 M) was 22%.
In the case of CEFQQWSGKC [G5 12-8B], the “binding of phage displaying the peptide to CML cells” value (shortened to “binding … to CML cells”) (CML cells) is reported as “bind”, the “binding of phage displaying the peptide to AML cells” value (“binding … to AML cells” for short) (AML cells) is reported as “bind” and the “binding of phage displaying the peptide to blood cells (lymphocytes or granulocytes)” value (“binding … (lymphocytes or granulocytes)” below) [6] is reported as “bind”. For the same compound, the “binding of phage displaying the peptide to CLL cells” value (“binding … to CLL cells” for short) (CLL cells) was “bind” and the “binding of phage displaying the peptide to all myeloid cells, both malignant and nonmalignant” value (“binding … both malignant and nonmalignant” for short) [7] was “bind”.
With EFQQWSGK [G5 12-8B phage] the “Number of Cells” value ([8]; Patient 1) was 1.11 106, the “Percent Differentiation” value ([8]; Patient 1) was 27.9% and the “Number of Cells” value ([8]; Patient 2, listed as GS-12-8B) was 0.31 106. The “Percent Differentiation” value ([8]; Patient 2, listed as GS-12-8B) was 61%, the “Percent differentiated in Specimen 1” value [8] was 28% and the “Percent differentiated in Specimen 2” value [8] was 61%. For the same compound, the “No. Cells” value ([1]; phage 75) was 3.8 10^6 cell/mL, the “Percent relative to Controls” value ([1]; phage 75) was 140% and the “Day 5 % Diff.” value ([3]; phage 75) was 17%. The “Day 5 % Diff., figure in parentheses” value ([3]; phage 75) was 142%, the “Day 7 % Diff.” value ([3]; phage 75) was 46% and the “Day 7 % Diff., figure in parentheses” value ([3]; phage 75) was 288%. The “Day 9 % Diff.” value ([4]; phage 75) was 46%.
For IEETARKG [A2 11-24 phage], the “Number of Cells” value ([8]; Patient 1) was 0.75 106, the “Percent Differentiation” value ([8]; Patient 1) was 79.2% and the “Number of Cells” value ([8]; Patient 2) was 0.33 106. For the same compound, the “Percent Differentiation” value ([8]; Patient 2) was 49.5%, the “Percent differentiated in Specimen 1” value [8] was 79% and the “Percent differentiated in Specimen 2” value [8] was 50%. For the same compound, the “No. Cells” value ([1]; phage 75) was 1.6 10^6 cell/mL, the “Percent relative to Controls” value ([1]; phage 75) was 62% and the “Day 5 % Diff.” value ([3]; phage 75) was 18%. The “Day 5 % Diff., figure in parentheses” value ([3]; phage 75) was 150%, the “Day 7 % Diff.” value ([3]; phage 75) was 52% and the “Day 7 % Diff., figure in parentheses” value ([3]; phage 75) was 325%. The “Day 9 % Diff.” value ([4]; phage 75) was 64%.
With IEETARKG [D9 12-8B] the “binding … to CML cells” value (CML cells) was “bind”, the “binding … to AML cells” value (AML cells) was “bind” and the “binding … (lymphocytes or granulocytes)” value [6] was “bind”. For the same compound, the “binding … to CLL cells” value (CLL cells) was “bind” and the “binding … both malignant and nonmalignant” value [7] was “bind”.
In the case of NETTVREY [C9 11-24], the “binding … to CML cells” value (CML cells) is reported as “bind”, the “binding … to AML cells” value (AML cells) is reported as “bind” and the “binding … (lymphocytes or granulocytes)” value [6] is reported as “bind”. For the same compound, the “binding … to CLL cells” value (CLL cells) was “bind” and the “binding … both malignant and nonmalignant” value [7] was “bind”.
In the case of NHVCSRLG [B4(2)], the “binding … to CML cells” value (CML cells) is reported as “bind”, the “binding … to AML cells” value (AML cells) is reported as “bind” and the “binding … (lymphocytes or granulocytes)” value [6] is reported as “bind”. The “binding … to CLL cells” value (CLL cells) was “bind”.
With VSEDIYDA [E5 12-8B] the “binding … (lymphocytes or granulocytes)” value [6] was “bind” and the “binding … to CLL cells” value (CLL cells) was “bind”.
